The text below walks through data of ChEMBL document CHEMBL1201862, “PubChem BioAssay data set” (2004).

Test [1] concerns the target T1, Interleukin-8 (Homo sapiens, UniProt P10145). The experiment in a line: Dose Response confirmation of uHTS small molecule hits for cystic fibrosis induced NFkb Inhibitors in a TNFa-induced IL8 counterscreen. Conditions: read-out: IC50_Mean. It counts as functional.
In test [2] the target is T1, Interleukin-8. The experiment in a line: Dose Response confirmation of uHTS small molecule hits for cystic fibrosis induced NFkb Inhibitors in a PAF-induced IL8 counterscreen. It counts as functional. The note with it: read-out: IC50_Mean. For orientation: A counterscreen serves to expose hits that act by an unwanted route or on another target.
In another test the target is Kallikrein-7 (Homo sapiens, UniProt P49862). As to the kind of experiment: Fluorescence Intensity-based biochemical primary high throughput dose response assay to identify activators of kallikrein-7 (K7) zymogen.
Kallikrein-7, sequence (P49862 whole entry): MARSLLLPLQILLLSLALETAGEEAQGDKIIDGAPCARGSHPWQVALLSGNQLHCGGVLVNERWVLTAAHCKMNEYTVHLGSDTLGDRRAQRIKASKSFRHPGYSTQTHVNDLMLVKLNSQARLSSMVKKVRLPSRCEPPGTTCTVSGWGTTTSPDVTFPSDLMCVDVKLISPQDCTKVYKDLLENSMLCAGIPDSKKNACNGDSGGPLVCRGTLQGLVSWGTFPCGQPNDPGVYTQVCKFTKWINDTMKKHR
Test [3] deals with HEK293. As to the kind of experiment: cells. The note with it: Homo sapiens.
For test [4], the system named is HEK293. The experiment in a line: cells. Conditions: Homo sapiens. The source holds these as a separate data set.
The target in test [5] is Multidrug resistance protein CDR1 (Candida albicans, UniProt P43071). The experiment in a line: CaCDR1 efflux pump inhibitors in yeast, dose response, S. cerevisiae AD1-8u, singleplex, Cherry Pick1 hits (AID 588606). The class given is functional.
Multidrug resistance protein CDR1, sequence (P43071 whole entry, looked up): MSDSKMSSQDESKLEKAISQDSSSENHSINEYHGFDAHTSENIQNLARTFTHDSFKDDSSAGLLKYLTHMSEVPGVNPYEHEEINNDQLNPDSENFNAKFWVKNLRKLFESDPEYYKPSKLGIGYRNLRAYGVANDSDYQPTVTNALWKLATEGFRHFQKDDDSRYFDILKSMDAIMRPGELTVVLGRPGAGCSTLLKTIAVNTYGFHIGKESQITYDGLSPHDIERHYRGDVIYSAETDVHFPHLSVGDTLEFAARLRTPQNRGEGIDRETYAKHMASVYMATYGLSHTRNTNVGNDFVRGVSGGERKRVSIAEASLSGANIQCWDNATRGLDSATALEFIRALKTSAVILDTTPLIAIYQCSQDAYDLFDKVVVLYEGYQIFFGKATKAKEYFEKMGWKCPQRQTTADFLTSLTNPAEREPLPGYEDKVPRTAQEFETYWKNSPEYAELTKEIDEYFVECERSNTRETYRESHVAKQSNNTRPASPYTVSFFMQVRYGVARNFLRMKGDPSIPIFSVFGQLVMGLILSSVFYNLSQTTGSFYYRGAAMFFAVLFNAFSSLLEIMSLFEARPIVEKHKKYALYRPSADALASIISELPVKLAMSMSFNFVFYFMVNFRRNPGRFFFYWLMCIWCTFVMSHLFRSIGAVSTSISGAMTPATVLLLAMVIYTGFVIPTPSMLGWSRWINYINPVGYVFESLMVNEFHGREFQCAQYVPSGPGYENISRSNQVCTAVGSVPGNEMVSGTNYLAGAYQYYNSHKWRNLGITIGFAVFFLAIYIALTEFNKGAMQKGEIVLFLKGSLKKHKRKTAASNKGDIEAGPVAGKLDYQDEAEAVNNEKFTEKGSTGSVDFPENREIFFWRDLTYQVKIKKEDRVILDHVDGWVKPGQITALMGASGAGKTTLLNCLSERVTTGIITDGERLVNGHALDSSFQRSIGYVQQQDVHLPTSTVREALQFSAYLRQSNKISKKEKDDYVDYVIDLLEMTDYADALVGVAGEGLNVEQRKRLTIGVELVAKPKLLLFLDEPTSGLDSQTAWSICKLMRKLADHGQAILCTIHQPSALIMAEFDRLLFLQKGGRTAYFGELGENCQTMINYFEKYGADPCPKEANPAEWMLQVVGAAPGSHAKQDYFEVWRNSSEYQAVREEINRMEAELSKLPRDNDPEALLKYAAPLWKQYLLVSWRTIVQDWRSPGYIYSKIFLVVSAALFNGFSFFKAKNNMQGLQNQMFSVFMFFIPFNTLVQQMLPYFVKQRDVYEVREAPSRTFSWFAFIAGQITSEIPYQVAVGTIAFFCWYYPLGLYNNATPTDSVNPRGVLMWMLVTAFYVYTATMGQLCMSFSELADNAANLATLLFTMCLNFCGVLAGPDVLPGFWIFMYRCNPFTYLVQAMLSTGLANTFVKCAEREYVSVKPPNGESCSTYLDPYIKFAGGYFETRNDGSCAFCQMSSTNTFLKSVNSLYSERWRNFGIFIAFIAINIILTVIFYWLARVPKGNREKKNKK
The target in a further test is Melanocortin receptor 4 (Homo sapiens, UniProt P32245). The experiment in a line: MC4R antagonist potency on cAMP, dose response, cell-based, TR-FRET, biased antagonists (AID 602298).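 Also: antagonist potency against agonist-stimulated cAMP production.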 It counts as functional. In general terms: TR-FRET usually uses a lanthanide donor and a delayed reading to cut background.
Melanocortin receptor 4, sequence (P32245 whole entry): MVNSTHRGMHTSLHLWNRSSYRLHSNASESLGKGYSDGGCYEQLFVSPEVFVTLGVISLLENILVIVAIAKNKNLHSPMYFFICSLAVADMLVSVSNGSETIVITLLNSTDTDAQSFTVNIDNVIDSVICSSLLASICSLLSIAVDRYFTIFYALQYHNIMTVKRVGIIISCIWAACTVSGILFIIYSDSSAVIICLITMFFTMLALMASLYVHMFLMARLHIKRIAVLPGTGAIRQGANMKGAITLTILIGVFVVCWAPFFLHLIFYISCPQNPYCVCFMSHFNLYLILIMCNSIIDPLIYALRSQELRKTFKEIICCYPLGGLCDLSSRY
Test [6] is described as follows: nonselective inhibitors of cellular cAMP signaling, dose response, counter-screen for MC4R biased antagonist project, cell-based, TR-FRET cAMP detection (AID 602305).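 Also: U2OS cells stimulated with forskolin near its EC80 as the cAMP inducer; potency is for inhibition of forskolin-stimulated cAMP signaling.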 It counts as functional.
Test [7] is described as follows: growth suppression of PTEN-null colon cells, dose response, cell-based, HCT116 PTEN knockout (AID 1047).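 Also: HCT116 colon tumor cells with PTEN knocked out; cells exposed to compound for 60 hours before readout; potency for loss of cell viability measured by luminescence.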 The class given is functional.
A short description of test [8]: growth suppression of beta-catenin-knockout colon cells, dose response, cell-based, HCT116, human colon tumor (AID 1045).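 Also: HCT116 colon tumor cells with beta catenin knocked out; cells exposed to compound for 60 hours.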 The class given is functional.
Test [9] is described as follows: Luminescence Cell-Based Dose Retest to Confirm Inhibitors of Cancer Stem Cells. [Related pubchem assays (depositor defined):AID2717, AID2721]. The class given is functional. The note with it: Homo sapiens.
Test [10] deals with T2, Insulin-degrading enzyme (Homo sapiens, UniProt P14735).
T2 sequence (P14735 whole entry): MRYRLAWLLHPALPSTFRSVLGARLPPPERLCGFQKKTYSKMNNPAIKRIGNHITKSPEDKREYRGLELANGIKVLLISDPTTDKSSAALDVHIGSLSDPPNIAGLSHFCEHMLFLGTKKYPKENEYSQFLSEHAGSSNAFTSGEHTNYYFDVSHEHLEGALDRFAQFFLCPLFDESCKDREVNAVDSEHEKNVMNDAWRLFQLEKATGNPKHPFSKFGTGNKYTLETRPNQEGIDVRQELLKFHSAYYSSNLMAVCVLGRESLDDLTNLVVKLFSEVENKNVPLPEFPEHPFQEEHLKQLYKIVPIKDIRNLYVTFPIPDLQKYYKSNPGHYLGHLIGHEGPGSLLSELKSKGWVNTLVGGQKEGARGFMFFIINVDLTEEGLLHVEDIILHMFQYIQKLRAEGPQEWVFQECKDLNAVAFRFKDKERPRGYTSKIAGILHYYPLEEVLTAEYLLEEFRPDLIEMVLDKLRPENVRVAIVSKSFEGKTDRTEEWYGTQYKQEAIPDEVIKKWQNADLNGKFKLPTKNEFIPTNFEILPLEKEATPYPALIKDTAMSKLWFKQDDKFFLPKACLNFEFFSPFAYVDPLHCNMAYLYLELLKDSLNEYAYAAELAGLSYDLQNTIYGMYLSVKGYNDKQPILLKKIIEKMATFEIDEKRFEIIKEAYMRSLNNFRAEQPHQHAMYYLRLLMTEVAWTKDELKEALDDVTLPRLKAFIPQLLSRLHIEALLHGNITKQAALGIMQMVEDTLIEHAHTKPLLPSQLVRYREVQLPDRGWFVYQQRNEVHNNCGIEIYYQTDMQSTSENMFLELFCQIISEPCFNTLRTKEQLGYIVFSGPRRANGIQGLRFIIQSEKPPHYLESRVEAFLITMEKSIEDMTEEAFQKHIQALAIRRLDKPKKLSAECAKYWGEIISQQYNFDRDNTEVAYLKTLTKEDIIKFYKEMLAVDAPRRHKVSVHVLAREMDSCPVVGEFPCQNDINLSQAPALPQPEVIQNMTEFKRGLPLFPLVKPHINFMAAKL
The experiment in a line: activators of recombinant IDE enzyme, dose response, counter-screen for IDE activator project, biochemical, fluorescence polarization (AID 588681).

In test [11] the target is T2, Insulin-degrading enzyme. As to the kind of experiment: activators of endogenous IDE in HEK cells, dose response, cell-based, fluorescence polarization (AID 588439). The class given is functional.
Another test has as its system INS1. The experiment in a line: beta cell apoptosis inhibitors, cytokine rescue, dose response, luminescence, retest (AID 449756).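 Also: cell death triggered by IL-1 beta plus TNF-alpha plus IFN-gamma mixture; protective hits raise ATP signal compared with cytokine alone wells.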 It counts as functional, cell-based. The note with it: Rattus norvegicus.
Test [12] has as its system HEK293. The experiment in a line: HEK cell cytotoxicity by LDH release, dose response, cytotoxicity control for IDE activator project, fluorescence, HEK cells (AID 588440).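 Also: cytotoxicity by LDH release measuring loss of membrane integrity.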 It counts as functional, cell-based. Conditions: Homo sapiens.
Test [13] has as its system HEK293. The experiment in a line: optical interference in Abeta FP readout, dose response, artefact control for IDE activator project, biochemical, fluorescence polarization (AID 588442). It counts as functional, cell-based. Conditions: Homo sapiens. In general terms: Polarisation of emitted light reports the rotation of a fluorescent probe.
Test [14] is described as follows: Shn3 3'UTR reporter inhibitors, dose response, cell-based, Clone20 osteoblasts, firefly luciferase, cherry-picked (AID 624132).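 Also: firefly luciferase luminescence from reporter carrying the Shn3 3'UTR in osteoblasts.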 It counts as functional.
The nature of test [15]: HepG2 cell cytotoxicity, dose response, cytotoxicity control for Shn3 inhibitor project, CellTiter-Glo, cherry-picked (AID 624134). It counts as functional, cell-based.
Test [16] can be described thus: control 3'UTR Renilla luciferase suppression, dose response, counter-screen for Shn3 inhibitor project, cell-based, Clone20-Shn3RL, cherry-picked (AID 624133). The class given is functional.
The next test has as its target T3, Cytochrome P450 1A2 (Homo sapiens, UniProt P05177).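 Also: PubChem cytochrome P450 panel assay, CYP1A2 panel member.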
T3 sequence (P05177 whole entry): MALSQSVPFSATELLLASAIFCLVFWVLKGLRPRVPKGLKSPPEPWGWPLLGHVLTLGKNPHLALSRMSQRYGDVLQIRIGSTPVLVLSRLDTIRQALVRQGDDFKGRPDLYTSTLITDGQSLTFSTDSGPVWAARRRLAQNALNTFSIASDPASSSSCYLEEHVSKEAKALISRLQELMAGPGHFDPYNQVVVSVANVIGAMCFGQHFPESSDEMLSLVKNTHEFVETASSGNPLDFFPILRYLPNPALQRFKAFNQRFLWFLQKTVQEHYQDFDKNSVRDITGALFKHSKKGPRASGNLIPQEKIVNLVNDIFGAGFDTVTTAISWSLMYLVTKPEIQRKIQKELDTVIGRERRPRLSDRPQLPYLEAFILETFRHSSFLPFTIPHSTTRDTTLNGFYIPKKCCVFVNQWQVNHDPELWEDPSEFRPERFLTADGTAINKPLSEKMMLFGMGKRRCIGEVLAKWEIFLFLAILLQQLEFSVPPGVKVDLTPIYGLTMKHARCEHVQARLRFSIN

The target of test [17] is T4, ATP-dependent translocase ABCB1 (Homo sapiens, UniProt P08183). As to the kind of experiment: ABCG2 efflux pump inhibitor potency, dose response, Ig-MXP3 cells, JC-1, flow cytometry, set 2 (AID 504566).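 Also: flow cytometry median green fluorescence of retained JC-1 dye; potency of efflux pump inhibition measured as rising substrate retention.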 The class given is functional. Conditions: read-out: EC50_MICROM_.
T4 sequence (P08183 whole entry): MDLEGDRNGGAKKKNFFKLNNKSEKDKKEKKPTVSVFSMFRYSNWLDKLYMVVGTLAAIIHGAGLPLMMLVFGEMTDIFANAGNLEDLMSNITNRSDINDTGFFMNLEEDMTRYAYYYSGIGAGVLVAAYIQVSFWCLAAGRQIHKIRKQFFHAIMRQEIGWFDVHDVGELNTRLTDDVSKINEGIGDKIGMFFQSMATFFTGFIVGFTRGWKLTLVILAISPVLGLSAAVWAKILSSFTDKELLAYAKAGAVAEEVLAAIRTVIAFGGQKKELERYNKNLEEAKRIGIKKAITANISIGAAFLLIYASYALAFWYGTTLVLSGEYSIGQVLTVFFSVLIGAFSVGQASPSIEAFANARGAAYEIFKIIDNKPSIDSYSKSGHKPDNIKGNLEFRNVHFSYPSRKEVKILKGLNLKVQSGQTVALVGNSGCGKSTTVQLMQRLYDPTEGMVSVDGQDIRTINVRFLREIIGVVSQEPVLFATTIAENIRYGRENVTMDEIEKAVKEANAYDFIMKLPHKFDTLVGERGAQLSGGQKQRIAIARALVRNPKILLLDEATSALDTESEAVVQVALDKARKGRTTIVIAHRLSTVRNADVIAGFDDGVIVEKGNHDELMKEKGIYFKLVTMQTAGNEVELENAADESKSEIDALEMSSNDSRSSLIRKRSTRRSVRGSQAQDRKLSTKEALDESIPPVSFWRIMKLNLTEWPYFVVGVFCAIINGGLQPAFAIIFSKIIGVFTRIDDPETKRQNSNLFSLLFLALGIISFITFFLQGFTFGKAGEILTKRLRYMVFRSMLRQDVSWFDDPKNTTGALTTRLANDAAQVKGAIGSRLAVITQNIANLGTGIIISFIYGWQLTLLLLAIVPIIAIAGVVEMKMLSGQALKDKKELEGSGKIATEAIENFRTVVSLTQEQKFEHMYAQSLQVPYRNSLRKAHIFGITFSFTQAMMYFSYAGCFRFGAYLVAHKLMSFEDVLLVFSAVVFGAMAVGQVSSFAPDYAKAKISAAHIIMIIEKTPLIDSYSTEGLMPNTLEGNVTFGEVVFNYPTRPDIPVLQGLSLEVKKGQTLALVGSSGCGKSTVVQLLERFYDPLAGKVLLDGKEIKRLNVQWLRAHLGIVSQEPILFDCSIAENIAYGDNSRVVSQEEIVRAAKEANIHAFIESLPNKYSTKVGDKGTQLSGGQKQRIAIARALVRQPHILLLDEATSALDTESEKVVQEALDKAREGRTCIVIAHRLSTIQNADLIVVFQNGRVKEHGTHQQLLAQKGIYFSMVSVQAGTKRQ
Test [18] concerns the target T4, ATP-dependent translocase ABCB1. As to the kind of experiment: ABCB1 efflux inhibitor potency, dose response, Jurkat-DNR cells, JC-1, flow cytometry, set 2 (AID 504569).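 Also: potency of pump inhibitors that raise cellular JC-1 green fluorescence up to the nicardipine level.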 The class given is functional. Conditions: read-out: EC50_MICROM_.
The target of test [19] is Insulin-like growth factor 1 receptor (Homo sapiens, UniProt P08069). As to the kind of experiment: Navigating the Kinome. Panel member name: IGF1R. The class given is functional.
Test [20] concerns the target Vascular endothelial growth factor receptor 3 (Homo sapiens, UniProt P35916). The class given is functional.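 Also: value from a kinome-wide profiling panel, with FLT4 as the panel member.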
Test [21] concerns the target Cyclin-dependent kinase 1 (Homo sapiens, UniProt P06493). It counts as functional.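 Also: Kinome-wide panel profiling, with the target listed as panel member CDC2.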
Test [22] deals with 26S proteasome non-ATPase regulatory subunit 14 (Homo sapiens, UniProt O00487). The experiment in a line: inhibition of proteasome subunit RPN11 – biochemical, fluorescence polarization, uHTS hits, confirmation (AID 602368). It counts as functional.
26S proteasome non-ATPase regulatory subunit 14, sequence (O00487 whole entry): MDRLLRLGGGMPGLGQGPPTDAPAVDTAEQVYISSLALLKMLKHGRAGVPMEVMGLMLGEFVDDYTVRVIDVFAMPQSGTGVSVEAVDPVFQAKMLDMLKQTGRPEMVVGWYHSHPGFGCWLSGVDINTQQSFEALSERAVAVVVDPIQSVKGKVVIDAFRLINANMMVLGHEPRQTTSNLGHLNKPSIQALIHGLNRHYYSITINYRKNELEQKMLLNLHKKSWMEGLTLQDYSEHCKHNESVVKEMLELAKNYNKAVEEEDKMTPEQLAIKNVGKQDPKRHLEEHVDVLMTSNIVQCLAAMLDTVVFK
For test [23], the target named is 72 kDa type IV collagenase (Homo sapiens, UniProt P08253). As to the kind of experiment: Dose Response validation of uHTS RPN11 inhibitor hits using a MMP-2 Fluorescence assay. It counts as functional.
72 kDa type IV collagenase, sequence (P08253 whole entry): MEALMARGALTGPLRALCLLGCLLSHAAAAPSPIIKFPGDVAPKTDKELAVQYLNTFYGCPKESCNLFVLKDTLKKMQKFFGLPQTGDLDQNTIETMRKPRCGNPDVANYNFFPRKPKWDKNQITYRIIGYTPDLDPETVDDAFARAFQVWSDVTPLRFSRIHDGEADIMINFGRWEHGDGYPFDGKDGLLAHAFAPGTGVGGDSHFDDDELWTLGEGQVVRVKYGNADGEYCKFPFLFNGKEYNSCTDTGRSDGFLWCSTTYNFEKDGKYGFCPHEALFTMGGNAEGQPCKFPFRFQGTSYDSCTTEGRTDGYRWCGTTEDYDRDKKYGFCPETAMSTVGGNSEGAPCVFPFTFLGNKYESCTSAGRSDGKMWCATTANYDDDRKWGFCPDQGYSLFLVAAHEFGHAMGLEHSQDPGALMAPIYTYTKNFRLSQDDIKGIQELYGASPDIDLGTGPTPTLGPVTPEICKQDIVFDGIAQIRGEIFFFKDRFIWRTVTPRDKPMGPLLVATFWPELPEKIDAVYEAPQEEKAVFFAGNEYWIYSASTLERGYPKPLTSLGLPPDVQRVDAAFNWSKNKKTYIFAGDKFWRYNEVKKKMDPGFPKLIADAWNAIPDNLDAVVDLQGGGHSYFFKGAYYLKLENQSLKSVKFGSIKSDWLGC
A further test concerns the target Prothrombin (Bos taurus, UniProt P00735). The experiment in a line: thrombin inhibition, dose response, biochemical, fluorescence polarization, uHTS hits (AID 602369). It counts as functional.

Calls of active or inactive are those of the source.

T1 sequence (P10145 whole entry): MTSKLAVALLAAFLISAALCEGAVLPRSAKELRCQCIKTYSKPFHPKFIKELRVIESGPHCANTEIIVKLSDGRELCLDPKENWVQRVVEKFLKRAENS
Cyclin-dependent kinase 1, sequence (P06493 whole entry): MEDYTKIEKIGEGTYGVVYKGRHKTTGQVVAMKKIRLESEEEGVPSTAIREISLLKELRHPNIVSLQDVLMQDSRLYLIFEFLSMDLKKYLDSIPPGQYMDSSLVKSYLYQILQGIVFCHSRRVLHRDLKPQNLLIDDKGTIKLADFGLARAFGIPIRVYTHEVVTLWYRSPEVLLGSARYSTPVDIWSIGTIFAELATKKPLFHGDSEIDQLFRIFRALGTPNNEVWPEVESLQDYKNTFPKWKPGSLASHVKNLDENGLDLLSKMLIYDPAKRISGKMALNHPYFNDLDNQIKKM

`O=C(NCCc1ccccc1)c1coc(=O)c(Br)c1`: the IC50 on Interleukin-8 [1] is 684 nM (active); on Interleukin-8 [2] it was 987 nM (active). The EC50 on Kallikrein-7 was 16.5 µM (inactive); in the test with HEK293 [3] it was > 59.6 µM (inactive); in the test with HEK293 [4], > 59.6 µM (inactive).

For `O=C(Nc1ccnc(-c2cccnc2)n1)c1cccc(Cl)c1Cl`, the EC50 in test [5] is 117 nM (active).

With `CC(C)(C)C(=O)COC(=O)CNC(=O)c1ccc(Oc2ccccc2)cc1`, the IC50 (at Melanocortin receptor 4; in test [6]) was > 64.6 µM (inactive) throughout.

Regarding `COc1ccc(Cn2c(SCc3ccccc3C)nc3cc(OC)c(OC)cc3c2=N)cc1`, the EC50 is 4.85 µM (active) in test [7]; 3.81 µM (active) in test [8]; > 54.7 µM (inactive) on Insulin-degrading enzyme [10]; 9.39 µM (active) on Insulin-degrading enzyme [11]; > 54.7 µM (inactive) in the test with HEK293 [13]. In addition, the AC50 (in general, the concentration giving half of the maximal activity seen) was 2.71 µM (active) in test [9]; 4.3 µM (active) in the test on INS1; 5.46 µM (active) in test [14]; 12.8 µM (active) in test [15]; 16 µM (active) in [16]; 15.8 µM (inconclusive) at Cytochrome P450 1A2. Further, in the test with HEK293 [12], the IC50 was 18.5 µM (inactive).

Take `O=C(c1ccco1)N1CCN(c2cc(-c3ccccc3)nc3cc(-c4cccc(F)c4)nn23)CC1`: the EC50 in test [17] was 1.05 µM (active); in test [18] it was 3.4 µM (active).

Turning to `Cc1cc(C)c(C=C2C(=O)Nc3ccccc32)[nH]1`, the results for the Ki in test [19], in [20] and in [21] were > 1 µM (inactive), 316 nM (active) and > 7.94 µM (inactive), respectively.

Take `CSc1nsc(/C=C/Nc2ccc(C(=O)O)cc2)c1C#N`: the IC50 in test [22] is 24.8 µM (active); in test [23] it was 45 µM (active); at Prothrombin, 27.6 µM (active).
